Source: the supplement of paper PMC10307832

How the values were obtained:
Assay in all cases: relative viability (nuclei count vs DMSO), 5 days (fraction); higher = more cells survive
[1] = compound: CCOc1cc2ncc(C#N)c(Nc3ccc(OCc4ccccn4)c(Cl)c3)c2cc1NC(=O)/C=C/CN(C)C [Neratinib] + CS(=O)(=O)CCNCc1ccc(-c2ccc3ncnc(Nc4ccc(OCc5cccc(F)c5)c(Cl)c4)c3c2)o1 [Lapatinib] (partner 2 µM)
Procedure, shortened: (§1)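 Lung cancer cell lines in 1536-well plates were dosed by pin tool the day after seeding, either with one drug alone or with a fixed anchor-drug dose plus five library-drug doses (not always all listed) in √10 steps. After 5 days, cells were fixed and their nuclei stained in one step (final 0.05% Triton X-100, 1% formaldehyde, 1 ug/ml Hoechst), then counted on 4× images. Relative viability is the nuclei count in treated wells divided by that in vehicle wells. Values are medians of duplicate plates.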

[2] = compound: CCOc1cc2ncc(C#N)c(Nc3ccc(OCc4ccccn4)c(Cl)c3)c2cc1NC(=O)/C=C/CN(C)C [Neratinib] + NC(=O)Nc1cc(-c2cccc(F)c2)sc1C(=O)N[C@H]1CCCNC1 [AZD7762] (partner 0.2 µM)
Procedure, shortened: as §1

[3] = compound: CCOc1cc2ncc(C#N)c(Nc3ccc(OCc4ccccn4)c(Cl)c3)c2cc1NC(=O)/C=C/CN(C)C [Neratinib] + Nc1ncn([C@H]2C[C@H](O)[C@@H](CO)O2)c(=O)n1 [Decitabine] (partner 2 µM)
Procedure, shortened: as §1

[4] = compound: CCOc1cc2ncc(C#N)c(Nc3ccc(OCc4ccccn4)c(Cl)c3)c2cc1NC(=O)/C=C/CN(C)C [Neratinib] + O=C(c1cc(Cc2n[nH]c(=O)c3ccccc23)ccc1F)N1CCN(C(=O)C2CC2)CC1 [Olaparib] (partner 8 µM)
Procedure, shortened: as §1

Cell Line | relative viability ([1]; first compound 0.01 µM) | relative viability ([1]; first compound 0.03162 µM) | relative viability ([1]; first compound 0.1 µM) | relative viability ([1]; first compound 0.3162 µM) | relative viability ([1]; first compound 1 µM) | relative viability ([2]; first compound 0.01 µM) | relative viability ([2]; first compound 0.03162 µM) | relative viability ([2]; first compound 0.1 µM) | relative viability ([2]; first compound 0.3162 µM) | relative viability ([2]; first compound 1 µM) | relative viability ([3]; first compound 0.01 µM) | relative viability ([3]; first compound 0.03162 µM) | relative viability ([3]; first compound 0.3162 µM) | relative viability ([3]; first compound 1 µM) | relative viability ([4]; first compound 0.01 µM) | relative viability ([4]; first compound 0.03162 µM) | relative viability ([4]; first compound 0.1 µM) | relative viability ([4]; first compound 0.3162 µM) | relative viability ([4]; first compound 1 µM) | relative viability ([3]; first compound 0.1 µM)
201T | 1.07 | 0.943 | 0.981 | 1.08 | 1.05 | 0.672 | 0.618 | 0.447 | 0.59 | 0.527 | 0.858 | 0.857 | 0.853 | 0.84 | 0.811 | 0.813 | 0.737 | 0.782 | 0.838 | 
A-427 | 1.08 | 1.12 | 0.972 | 1 | 0.998 | 0.811 | 0.725 | 0.704 | 0.729 | 0.338 | 0.558 | 0.606 | 0.521 | 0.54 | 0.826 | 0.883 | 0.56 | 0.71 | 0.553 | 0.573
ABC-1 | 1.44 | 1.15 | 1.21 | 1.05 | 0.629 | 0.955 | 0.659 | 0.682 | 0.779 |  | 1.21 | 1.31 | 1.07 | 0.746 | 0.835 | 0.979 | 0.946 | 0.631 | 0.489 | 1.23
BEN | 0.739 | 1.12 | 0.464 | 0.59 | 0.565 | 0.745 | 0.804 | 0.628 | 0.571 | 0.596 | 0.76 | 0.77 | 0.636 | 0.702 | 1.15 | 1.21 | 0.863 | 0.932 | 0.816 | 0.809
CAL-12T | 0.725 | 0.702 | 0.529 | 0.635 | 0.295 | 0.616 | 0.695 | 0.556 |  | 0.646 |  |  |  |  | 0.698 | 0.707 | 0.709 | 0.406 | 0.343 | 
COR-L23 | 1.07 | 1.14 | 0.781 | 0.882 | 0.598 |  |  |  |  |  | 0.456 | 0.478 | 0.495 | 0.473 | 0.349 | 0.398 | 0.275 | 0.365 | 0.311 | 0.499
COR-L 105 | 0.36 | 0.37 | 0.331 | 0.377 | 0.32 |  |  |  |  |  | 0.674 | 0.618 |  | 0.349 | 0.641 |  | 0.506 | 0.414 | 0.419 | 0.402
Calu-6 |  | 1.27 | 0.967 | 0.95 | 0.64 |  |  |  |  |  |  |  |  |  | 0.507 | 0.643 | 0.568 | 0.518 | 0.369 | 
